Experimental data taken from publication PMC6332334, “3-H-[1,2]Dithiole as a New Anti-Trypanosoma cruzi Chemotype: Biological and Mechanism of Action Studies” (Molecules, 2015).
Read-outs that look alike come from different tables or passages of the source.

Legend:
[1] = test system: epimastigotes of T. cruzi (Tulahuen 2 strain); design: method as in PMID 25512408; settings: reference trypanosomicidal drugs; read-out: IC50 against epimastigotes of T. cruzi (reference drugs); cited from earlier work
[2] = test system: J774.1 murine macrophages; experiment: Unspecific in vitro cytotoxicity of mammalian cells (MTT); format: cell-based; settings: Mus musculus, 48 h exposure, read-out: IC50 against Macrophages
Protocol: (§1) To evaluate the anti-trypanosomal activity of the synthesized 3H-[1,2]dithioles we used T. cruzi, Tulahuen 2 strain (discrete typing unit, DTU, TcVI [18]) in the epimastigote form. […] To establish the selectivity of the compounds against the parasite, unspecific cytotoxicity against mammalian cells (J774.1 murine macrophages) was studied for the most relevant derivatives. The selectivity indexes (SI) were also determined (Table 1).
J774.1 murine macrophage cells (ATCC, Manassas, VA, USA) were grown in DMEM culture milieu containing 4 mM L-glutamine and supplemented with 10% heat-inactivated fetal calf serum. […] Afterwards, cells were exposed for 48 h to the compounds (25–400 μM) or vehicle for control (0.4% DMSO), and additional controls (cells in medium) were used in each test. Cell viability was then assessed by measuring the mitochondria-dependent reduction of MTT (3-(4,5-dimethylthiazol-2-yl)-2,5-diphenyltetrazolium bromide) to formazan. For this purpose, MTT in sterile PBS (0.2% glucose) pH 7.4 was added to the macrophages to achieve a final concentration of 0.1 mg/mL and the cells were incubated at 37 °C for 3 h. After removing the medium, formazan crystals were dissolved in 180 μL of DMSO and 20 μL of MTT buffer (0.1 M glycine, 0.1 M NaCl, 0.5 mM EDTA, pH 10.5) and the absorbance at 560 nm was measured. The IC50 was defined as the drug concentration at which 50% of the cells were viable, relative to the control (no drug added), and was determined by analysis using OriginLab8.5® sigmoidal regression (% of viable cells vs. logarithm of the compound concentration). Samples were performed in triplicate.

[3] = biological target: T1, cruzipain (Trypanosoma cruzi, UniProt P25779); experiment: Inhibition of T. cruzi cruzipain (Z-Phe-Arg-AMC fluorogenic substrate); format: biochemical; settings: percentage of enzymatic inhibition at 100 μM; read-out: Cruzipain % Inhib100
T1 construct: endogenous in cells; host or cells: T. cruzi epimastigotes, Tulahuen 2 strain
T1 sequence (P25779 123-467): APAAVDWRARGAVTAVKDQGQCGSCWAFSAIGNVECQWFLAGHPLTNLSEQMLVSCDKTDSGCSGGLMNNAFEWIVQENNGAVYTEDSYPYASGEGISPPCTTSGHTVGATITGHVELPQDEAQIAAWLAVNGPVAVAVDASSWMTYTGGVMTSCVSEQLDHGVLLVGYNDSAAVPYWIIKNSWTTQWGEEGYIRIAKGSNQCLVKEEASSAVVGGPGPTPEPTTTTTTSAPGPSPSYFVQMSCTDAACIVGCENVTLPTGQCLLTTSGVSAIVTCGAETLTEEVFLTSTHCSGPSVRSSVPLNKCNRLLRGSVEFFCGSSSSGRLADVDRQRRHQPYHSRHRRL
Protocol: Initially, we tested the dithioles as inhibitors of the protease cruzipain from T. cruzi at a concentration of 100 μM.
Cruzipain was purified to homogeneity from epimastigotes of the Tulahuen 2 strain by ConA-Sepharose affinity chromatography, as previously described. Cruzipain (2.5 μM ε = 58,285 M^−1·cm^−1) was incubated in 50 mM acetate buffer pH 5.5 with 50 mM DTT and 100 μM inhibitor was added, shaking the solution for 15 min at 27 °C. The derivatives were added diluted in DMSO, and the controls contained the same solvent concentration. The concentration of DMSO never exceeded 1% in the reaction medium. E-64 was used as a positive control of inhibition. Then, the fluorogenic substrate Z-Phe-Arg-AMC (100 μM) was added and the fluorescence was measured during 10 min at intervals of 3 s (excitation at 350 nm and emission at 460 nm) using a Varioskan Flash Spectrophotometer. From the slope of the negative control, we calculated the total (100%) enzyme activity, while the slopes obtained in the presence of the compounds yielded the percentage of remaining enzyme activity. The percentage of enzyme inhibition was determined as […]. The experiments were done in duplicate.

[4] = test system: epimastigotes of T. cruzi (Tulahuen 2 strain); experiment: Anti-T. cruzi test in vitro (epimastigote growth inhibition); format: cell-based, Trypanosoma cruzi; settings: for IC50: Trypanosoma cruzi, epimastigotes, Tulahuen 2 strain, triplicate, read-out: IC50 against T. cruzi
Protocol: as §1
We used epimastigotes of the Tulahuen 2 strain (DTU, Tc VI) growing in an axenic milieu (BHI-Tryptose). Cells from a 5–7-day-old culture were inoculated in fresh culture milieu to give an initial concentration of 1 × 10^6 cells/mL. The absorbance at 600 nm of the cells in culture was measured every day. At day 5, the milieu was inoculated with different quantities of the compounds from a stock solution in DMSO (DMSO concentration in the culture milieu never exceeded 0.4%). The control was made in the presence of 0.4% DMSO and in the absence of compounds. […] At day 5, the absorbance of the culture was measured and related to the control. The IC50 value was taken as the concentration of drug needed to reduce the absorbance ratio to 50%.

[5] = biological target: T2, Trypanosoma cruzi triosephosphate isomerase (TcTIM) (Trypanosoma cruzi, UniProt P52270); experiment: Inhibition of enzymatic activity of TcTIM; format: biochemical; settings: for inhibition at 25 µM: percentage of enzymatic inhibition at 25 μM, read-out: TcTIM % Inhib25; for inhibition at 200 µM: percentage of enzymatic inhibition at 200 μM, read-out: TcTIM % Inhib200
T2 construct: made in house; host or cells: Escherichia coli
T2 sequence (P52270 whole entry): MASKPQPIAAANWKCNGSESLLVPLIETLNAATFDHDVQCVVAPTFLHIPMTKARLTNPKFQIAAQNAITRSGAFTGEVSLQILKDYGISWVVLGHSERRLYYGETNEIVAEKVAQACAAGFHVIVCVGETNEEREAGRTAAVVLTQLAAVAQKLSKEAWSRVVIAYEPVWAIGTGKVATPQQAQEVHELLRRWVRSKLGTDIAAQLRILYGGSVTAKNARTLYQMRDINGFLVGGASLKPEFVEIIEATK
Protocol: In order to investigate if the 3H-[1,2]dithioles inhibit TcTIM, we initially tested the inhibitory capacity of the compounds at a concentration of 200 μM and then at 25 μM.
Expression and purification of protein: TcTIM was expressed in Escherichia coli and purified as described in the literature. After purification, the enzyme, dissolved in 100 mM triethanolamine, 10 mM EDTA and 1 mM dithiothreitol (pH 8), was precipitated with ammonium sulfate (75% saturation) and stored at 4 °C. Before use, extensive dialysis against 100 mM triethanolamine/10 mM EDTA (pH 7.4) was performed. Protein concentration was determined by absorbance at 280 nm (ε = 36,440 M^−1·cm^−1).
Enzymatic activity assays. Enzymatic activity was determined following the conversion of glyceraldehyde 3-phosphate into dihydroxyacetone phosphate. The decrease in absorbance at 340 nm was followed in a multicell Cary spectrophotometer at 25 °C. The reaction mixture (1 mL, pH 7.4) contained 100 mM triethanolamine, 10 mM EDTA, 0.2 mM NADH, 1 mM glyceraldehyde 3-phosphate, and 0.9 units of α-glycerol phosphate dehydrogenase. The reaction was initiated by addition of 5 ng/mL of the TcTIM.
For inactivation studies, TcTIM was incubated at a concentration of 5 mg/mL in a buffer containing 100 mM triethanolamine, 10 mM EDTA, pH 7.4 and 10% of DMSO at 36 °C. The mixture also contained the compounds at the indicated concentrations. Compounds were dissolved in DMSO. After 2 h, […] was withdrawn and added to 1 mL of reaction mixture for the activity assay. None of the molecules tested here affected the activity of α-glycerol phosphate dehydrogenase, the enzyme used for trapping the product.
The IC50 value was taken as the concentration of drug needed to reduce the enzymatic activity to 50%. The experiments were performed in triplicate.

[6] = test system: T. cruzi cells (Y strain, DTU Tc II); experiment: 1H-NMR study of the excreted metabolites; format: cell-based, Trypanosoma cruzi
Protocol: To gain insight into the changes promoted by the active 3-propylidene[1,2]dithioles 2 and 14 in some biochemical pathways, the metabolites excreted by the parasite using ^1H-NMR spectroscopy were analyzed. Changes in the excreted metabolites by T. cruzi Y strain (DTU Tc II, [24]), when the parasite cells were exposed to a bioactive compound, could be indicative of the modification of the biochemical pathway(s) by the agents. Spectra of the cell-free milieu of treated parasites were compared with those of the untreated T. cruzi-free milieu as the control. We focused mainly on the changes of excreted salts of the carboxylic acids, lactate (Lac), acetate (Ace), pyruvate (Pyr), and succinate (Succ) and the amino acids, alanine (Ala) and glycine (Gly), among the most relevant modified metabolites.
For the ^1H-NMR spectroscopic studies, T. cruzi cells (Y strain, DTU Tc II) treated for 2 days, with each studied compound at concentrations corresponding to 2 × IC50 values (5 mL) were centrifuged at 1500× g for 10 min at 4 °C. The pellet was discarded, and the parasite-free supernatant was stored at −20 °C until use. Before measuring, DMF (0.1 mL, 10 mM) as the internal standard and D2O (0.1 mL) were added to the supernatant (0.3 mL). ^1H-NMR experiments were recorded at 20 °C on a Bruker Advance DPX-400 spectrometer (Bruker), operating at 400.132 MHz, with a 5 mm broadband inverse geometry probe. The acquisition parameters included: 90° pulse (zgpr, advance-version v 1.7.10.2, 1D sequence with f1 presaturation), 128 scans, and spectral width of 14.983 ppm. The acquisition time was 1.3664 s. Signal intensities were calculated by performing appropriate baseline corrections and then integrating the area under each of the resonances using MestRe-C NMR software. Spectra were analyzed using the Topspin 1.3 software package. The spectra were registered with water suppression in 5 mm NMR (Aldrich, St. Louis, MO, USA) sample tubes. The chemical displacements used to identify the respective metabolites were previously confirmed by adding each analyzed metabolite to the studied supernatant, as well as by the study of a control solution with 4 μg/mL of each metabolite in buffer (phosphate, pH = 7.4). Each run was done at least in triplicate and the Student t test was used to analyze the significance of the changes. […]

[7] = biological target: T1, cruzipain; experiment: Inhibition of T. cruzi cruzipain (Z-Phe-Arg-AMC fluorogenic substrate); format: biochemical; settings: isolated enzyme
[8] = test system: membrane sterol biosynthesis in epimastigotes of Y strain of T. cruzi; experiment: Inhibition of membrane sterol biosynthesis (qualitative TLC); format: cell-based, Trypanosoma cruzi; settings: compounds at their IC50, 72 h, 28 °C, compared to control
Protocol: To do so, we analyzed the accumulation or depletion of some intermediates or final products of this biochemical pathway. Qualitative analyses were performed by thin layer chromatography (TLC).
The parasites, epimastigotes of Y strain of T. cruzi (DTU Tc II), were grown in 6 mL of BHT milieu in culture bottles. […] A negative control was performed with parasites in the absence of compounds. […] The extraction of membrane sterols was performed on completion of the incubation. For this purpose, the content of the culture bottle was centrifuged at 3000 rpm for 10 min, the supernatant was discarded and the pellet was suspended in sodium phosphate buffer solution (6 mL, 0.05 M, pH 7.4). Then it was centrifuged again at 3000 rpm for 10 min and the supernatant was discarded. The resulting pellet was resuspended in a chloroform/methanol (2:1) mixture (5 mL) and the suspension was kept at 4 °C for 12 h. Then, a saturated NaCl solution (5 mL) was added and the mixture extracted once with chloroform (3 mL) and once with hexane (3 mL) with care to avoid taking any aqueous phase. The extracted volume was applied to a silica gel TLC plate. Chromatography was performed eluting with hexane, two runs to identify squalene, and once with hexane/EtOAc (8:2) for ergosterol. […] Also, controls and commercial samples of ergosterol, lanosterol, cholesterol and squalene were run on the TLC plate. […]

[9] = test system: T. cruzi; settings: positive control of the sterol study; source not given; read-out: IC50 of terbinafine; cited from earlier work
[10] = IC50 × 2, 2 days, DMF internal standard

Row | inhibition at 100 µM [3] [%] | inhibition at 25 µM [5] [%] | inhibition at 200 µM [5] [%] | Compound | IC50 [1] [µM] | IC50 [2] [µM] | IC50 [4] [µM] | further results
1 | – | – | – | O=C(Cn1ccnc1[N+](=O)[O-])NCc1ccccc1 [Bnz, benznidazole] | 7 ± 1 | – | – | –
2 | 66.5 ± 0.3 | 38 ± 3.5 | 70 | O=C(CS/C(C(=O)c1ccc2ccccc2c1)=C1\C=C(c2ccc(O)cc2)SS1)c1ccc2ccccc2c1 [Derivative 14] | – | 63 ± 2 | 4.9 ± 1.1 | Concentration of excreted Ace [6, 10]: 26.41 ± 1.44; Concentration of excreted Ala [6, 10]: 20.65 ± 1.27; Concentration of excreted Gly [6, 10]: 2.48 ± 0.14; Concentration of excreted Lac [6, 10]: 10.41 ± 0.58; Concentration of excreted Pyr [6, 10]: 9.47 ± 0.53; Concentration of excreted Succ [6, 10]: 7.34 ± 0.65; Change of excreted metabolites compared to the control ([6]; IC50 × 2, p < 0.05 Student's t-test): did not modify the excreted catabolites
3 | 85.4 ± 0.2 | 62 ± 3 | 86 | COc1ccc(C2=C/C(=C(\SCC(C)=O)C(C)=O)SS2)cc1 [Derivative 15] | – | < 24 | 5.9 ± 1.2 | IC50 [7]: 15.1 ± 2.5 µM; SI (selectivity index) ([4]; macrophages (J774.1) vs T. cruzi epimastigotes): <4.1
4 | – | – | – | CN(C/C=C/C#CC(C)(C)C)Cc1cccc2ccccc12 [terbinafine, reference compound] | – | – | – | Changes in membrane sterols and intermediates (squalene, ergosterol) [8]: accumulate squalene and deplete ergosterol; IC50 [9]: 44.7 µM
5 | – | – | – | CC1CS(=O)(=O)CCN1/N=C/c1ccc([N+](=O)[O-])o1 (centres unmarked) [Nfx, nifurtimox] | 8 ± 1 | – | – | –
